Experimental data reported in ChEMBL document CHEMBL5338795, “Novel Triazoles with Potent and Broad-Spectrum Antifungal Activity In Vitro and In Vivo” (J Med Chem, 2023).
Converted amounts (≈) assume the structure as drawn. The source made the active and inactive calls. No cut-off for these calls is given here.

Tests used:
[1] = AUC (0 to infinity) in Sprague-Dawley rat at 2 mg/kg, iv measured at 0.08 to 24 hrs by LC-MS/MS analysis; assay type: ADME, organism-based; design: time 0.08-24 hrs, dose 2 mg/kg, route iv; settings: in vivo
Candida albicans [2] = assay: In-vivo antifungal activity against Candida albicans […] infected in skin infected ICR mouse model assessed as wound healing at 0.5 mg/kg, ip pretreated for 24 hrs followed by infection and measured for 5 days; assay type: functional, organism-based; settings: time 144.0 hrs
Candida albicans [3] = assay: Antifungal activity against fluconazole-resistant Candida albicans 15 assessed as inhibition of fungal growth measured for 24 hrs by CLSI based microdilution analysis; assay type: functional
Candida albicans [4] = assay: Antifungal activity against fluconazole-resistant Candida albicans 24D assessed as inhibition of fungal growth measured for 24 hrs by CLSI based microdilution analysis; assay type: functional
Candida albicans [5] = assay: Antifungal activity against Candida albicans SC5314 assessed as reduction in fungal growth incubated for 24 hrs by CLSI based microdilution analysis; assay type: functional
[6] = biological target: T1, Lanosterol 14-alpha demethylase (Candida albicans (strain SC5314 / ATCC MYA-2876) (Yeast), UniProt P10613); assay: Inhibition of CYP51 in Candida albicans […] assessed as decrease in unknown sterol biosynthesis level at 0.5 times MIC80 incubated for 16 hrs by GC-MS analysis relative to control
T1 sequence (P10613 whole entry): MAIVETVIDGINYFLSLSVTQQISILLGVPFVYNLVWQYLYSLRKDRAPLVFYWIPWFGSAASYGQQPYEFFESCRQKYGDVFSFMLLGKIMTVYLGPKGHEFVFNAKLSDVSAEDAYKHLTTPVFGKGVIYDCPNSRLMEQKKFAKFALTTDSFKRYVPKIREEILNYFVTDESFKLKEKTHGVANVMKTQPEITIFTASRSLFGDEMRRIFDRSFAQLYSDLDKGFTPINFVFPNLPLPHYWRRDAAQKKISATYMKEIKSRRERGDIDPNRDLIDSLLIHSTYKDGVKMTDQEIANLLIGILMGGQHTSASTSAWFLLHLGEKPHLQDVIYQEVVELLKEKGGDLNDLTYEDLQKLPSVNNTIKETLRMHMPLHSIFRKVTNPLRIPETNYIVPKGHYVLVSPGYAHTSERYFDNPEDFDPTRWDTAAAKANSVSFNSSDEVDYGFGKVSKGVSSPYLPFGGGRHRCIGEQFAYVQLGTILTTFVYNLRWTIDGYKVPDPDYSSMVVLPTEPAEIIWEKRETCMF

[7] = test system: Meyerozyma guilliermondii; assay: Antifungal activity against Meyerozyma guilliermondii ATCC 6260 assessed as reduction in fungal growth incubated for 24 hrs by CLSI based microdilution analysis; assay type: functional
Nakaseomyces glabratus = assay: Antifungal activity against Candida glabrata ATCC 15126 assessed as reduction in fungal growth incubated for 24 hrs by CLSI based microdilution analysis; assay type: functional
Aspergillus fumigatus [8] = assay: In-vivo antifungal activity against Aspergillus fumigatus CGMCC3 7795 infected in ip dosed ICR mouse model assessed as median survival time administered once daily pretreated for 24 hrs followed by infection and measured every 2 hrs for 5 days; assay type: functional, organism-based; settings: dose 1.0 mg/kg, time 144.0 hrs
Aspergillus fumigatus [9] = assay: Antifungal activity against Aspergillus fumigatus CGMCC3 7795 assessed as reduction in fungal growth incubated for 48 hrs by CLSI based microdilution analysis; assay type: functional
Candida albicans [10] = assay: In-vivo antifungal activity against Candida albicans […] infected in ICR mouse model assessed as median survival time at 1 mg/kg, ip administered once daily pretreated for 24 hrs followed by infection and measured every 2 hrs for 5 days; assay type: functional; settings: time 144 hrs
Candida albicans [11] = assay: In-vivo antifungal activity against Candida albicans […] infected in skin infected ICR mouse model assessed as reduction in fungal burden in skin at 0.5 mg/kg, ip pretreated for 24 hrs followed by infection and measured for 5 days by Periodic acid-Schiff staining based analysis; assay type: functional, organism-based; settings: time 144.0 hrs
[12] = Half life in Sprague-Dawley rat at 2 mg/kg, iv measured at 0.08 to 24 hrs by LC-MS/MS analysis; assay type: ADME, organism-based; settings: in vivo, time 0.08-24 hrs
Candida albicans [13] = assay: Induction of resistance development in Candida albicans SC5314 assessed as fold increase in MIC treated over 20 serial passages by microdilution assay; assay type: functional
Candida albicans [14] = assay: In-vivo antifungal activity against Candida albicans […] infected in skin infected ICR mouse model assessed as reduction in fungal burden in skin at 1 mg/kg, ip pretreated for 24 hrs followed by infection and measured for 5 days by Periodic acid-Schiff staining based analysis; assay type: functional, organism-based; settings: time 144.0 hrs
[15] = biological target: T1, Lanosterol 14-alpha demethylase; assay: Inhibition of CYP51 in Candida albicans […] assessed as decrease in ergosterol biosynthesis level at 1 times MIC80 incubated for 16 hrs by GC-MS analysis (Rvb=67.2%)
Candida albicans [16] = assay: Antifungal activity against fluconazole-resistant Candida albicans 102 assessed as inhibition of fungal growth measured for 24 hrs by CLSI based microdilution analysis; assay type: functional
Candida albicans [17] = assay: Antifungal activity against fluconazole-resistant Candida albicans 901 assessed as inhibition of fungal growth measured for 24 hrs by CLSI based microdilution analysis; assay type: functional
[18] = biological target: T1, Lanosterol 14-alpha demethylase; assay: Inhibition of CYP51 in Candida albicans SC3514 assessed as decrease in eburicol biosynthesis level at 0.5 times MIC80 incubated for 16 hrs by GC-MS analysis (Rvb=21.38%)
[19] = Hemolytic activity in mouse RBC assessed as hemolysis at 100 microg/ml incubated for 60 mins relative to control; assay type: toxicity, cell-based, Erythrocyte; settings: red blood cells (erythrocytes), at 100 µg/mL, read-out: Activity
Candida albicans [20] = assay: In-vivo antifungal activity against multidrug-resistant Candida albicans 24D infected in ICR mouse model assessed as median survival time at 1 mg/kg, ip administered once daily pretreated for 24 hrs followed by infection and measured every 2 hrs for 5 days; assay type: functional; settings: time 144 hrs
Cytochrome P450 3A4 = Cytochrome P450 3A4 (Homo sapiens, UniProt P08684); assay: Inhibition of CYP3A4 in human liver microsomes using testosterone as substrate preincubated for 5 mins followed by NADPH addition and measured after 5 mins by LC-MS/MS analysis; assay type: ADME, Microsome
Sequence of Cytochrome P450 3A4 (P08684 whole entry): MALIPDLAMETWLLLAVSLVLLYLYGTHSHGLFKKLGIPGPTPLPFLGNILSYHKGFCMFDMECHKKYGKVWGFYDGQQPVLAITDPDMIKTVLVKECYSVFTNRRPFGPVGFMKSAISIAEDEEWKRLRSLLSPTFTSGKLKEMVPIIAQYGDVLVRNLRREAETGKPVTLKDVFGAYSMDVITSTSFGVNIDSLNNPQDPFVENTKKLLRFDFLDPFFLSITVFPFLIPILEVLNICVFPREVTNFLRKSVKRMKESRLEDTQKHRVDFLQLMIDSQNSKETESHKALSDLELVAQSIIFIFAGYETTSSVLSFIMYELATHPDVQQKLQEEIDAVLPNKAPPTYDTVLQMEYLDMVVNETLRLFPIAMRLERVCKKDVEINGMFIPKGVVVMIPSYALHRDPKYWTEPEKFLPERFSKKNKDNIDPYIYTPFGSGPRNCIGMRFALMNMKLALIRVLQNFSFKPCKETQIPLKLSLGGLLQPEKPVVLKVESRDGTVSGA

Candida tropicalis = assay: Antifungal activity against Candida tropicalis ATCC 750 assessed as reduction in fungal growth incubated for 24 hrs by CLSI based microdilution analysis; assay type: functional
Cryptococcus neoformans = assay: Antifungal activity against Cryptococcus neoformans CGMCC3 1563 assessed as reduction in fungal growth incubated for 72 hrs by CLSI based microdilution analysis; assay type: functional
[21] = Clearance in Sprague-Dawley rat at 2 mg/kg, iv measured at 0.08 to 24 hrs by LC-MS/MS analysis; assay type: ADME, organism-based; settings: in vivo, time 0.08-24 hrs
[22] = biological target: T1, Lanosterol 14-alpha demethylase; assay: Inhibition of CYP51 in Candida albicans […] assessed as decrease in unknown sterol biosynthesis level at 1 times MIC80 incubated for 16 hrs by GC-MS analysis relative to control
Candida albicans [23] = assay: In-vivo antifungal activity against Candida albicans […] infected in skin infected ICR mouse model assessed as wound healing at 1 mg/kg, ip pretreated for 24 hrs followed by infection and measured for 5 days; assay type: functional, organism-based; settings: time 144.0 hrs
Candida albicans [24] = assay: Antifungal activity against fluconazole-resistant Candida albicans 112869 assessed as inhibition of fungal growth measured for 24 hrs by CLSI based microdilution analysis; assay type: functional
[25] = biological target: T1, Lanosterol 14-alpha demethylase; assay: Inhibition of CYP51 in Candida albicans […] assessed as decrease in ergosterol biosynthesis level at 0.5 times MIC80 incubated for 16 hrs by GC-MS analysis (Rvb=67.2%)
Candida albicans [26] = assay: Antifungal activity against fluconazole-resistant Candida albicans 13 assessed as inhibition of fungal growth measured for 24 hrs by CLSI based microdilution analysis; assay type: functional
Candida parapsilosis = assay: Antifungal activity against Candida parapsilosis ATCC 22019 assessed as reduction in fungal growth incubated for 24 hrs by CLSI based microdilution analysis; assay type: functional; settings: Lodderomyces parapsilosis
Candida albicans [27] = assay: Induction of resistance development in Candida albicans SC5314 assessed as increase in MIC treated over 8 serial passages by microdilution assay; assay type: functional
[28] = biological target: T1, Lanosterol 14-alpha demethylase; assay: Inhibition of CYP51 in Candida albicans […] assessed as decrease in lanosterol biosynthesis level at 0.5 times MIC80 incubated for 16 hrs by GC-MS analysis relative to control
CYP3A4 = assay: Selectivity index, ratio of MIC80 for antifungal activity against Candida albicans to IC50 for inhibition of CYP3A4 in human liver microsomes; assay type: toxicity; settings: read-out: Selectivity Index

## O[C@@](CN1CCN(CCn2ccc3cc(Br)ccc32)CC1)(Cn1cncn1)c1ccc(F)cc1F
[1]
  AUC(0-inf): 1260 ng·h/mL
Candida albicans [2]
  Activity: Active
Candida albicans [3]
  MIC80: 0.312 µg/mL (≈ 0.572 µM)
Candida albicans [4]
  MIC80: 0.031 µg/mL (≈ 0.0568 µM)
Candida albicans [5]
  MIC80: 0.004 µg/mL (≈ 0.00733 µM)
[6]
  inhibition (INH): 14.9%
[7]
  MIC80: 0.015 µg/mL (≈ 0.0275 µM)
Nakaseomyces glabratus
  MIC80: 0.078 µg/mL (≈ 0.143 µM)
Aspergillus fumigatus [8]
  Activity: Dose-Dependent Effect
Aspergillus fumigatus [9]
  MIC80: 0.625 µg/mL (≈ 1.15 µM)
Candida albicans [10]
  Time: 6 days
Candida albicans [11]
  Activity: Active
[12]
  half-life: 1.04 h
Candida albicans [13]
  fold change (FC): 8
Candida albicans [14]
  Activity: Active
[15]
  inhibition (INH): 5.41%
Candida albicans [16]
  MIC80: 0.015 µg/mL (≈ 0.0275 µM)
Candida albicans [17]
  MIC80: 1.25 µg/mL (≈ 2.29 µM)
[18]
  inhibition (INH): 21.3%
[19]
  hemolysis at 1 h, 100 microg/ml: 1.9%
Candida albicans [20]
  Time: 12 days
Cytochrome P450 3A4
  IC50: 400 nM
Candida tropicalis
  MIC80: 0.078 µg/mL (≈ 0.143 µM)
Cryptococcus neoformans
  MIC80: 0.015 µg/mL (≈ 0.0275 µM)
[21]
  clearance: 26.7 mL/min/kg
[22]
  inhibition (INH): 27.03%
Candida albicans [23]
  Activity: Active
Candida albicans [24]
  MIC80: 0.031 µg/mL (≈ 0.0568 µM)
[25]
  inhibition (INH): 33.33%
Candida albicans [26]
  MIC80: 0.015 µg/mL (≈ 0.0275 µM)
Candida parapsilosis
  MIC80: 0.008 µg/mL (≈ 0.0147 µM)
Candida albicans [27]
  Activity: Active
[28]
  inhibition (INH): 13.8%
CYP3A4
  selectivity ratio: 100
